Data from patent US10905781B2, “Reporter platform for real time monitoring of drug efficacy” (THE BRIGHAM AND WOMEN'S HOSPITAL, INC., priority 2016, dated 2021).
Ends that are not written are not given here.

System: effector caspases (caspase-3 and caspase-7) compared with initiator caspases (caspase-6 and caspase-9)
Assay: Activation of the NIR FRET reporter element by caspases
Type: biochemical
Settings: caspase-3 and caspase-7 compared with caspase-6 and caspase-9
Protocol: FIG. 15A is a graph showing the time-dependent activation of the reporter element (with the NIR FRET pair) in the presence of caspase-3. Reporter element (50 μM) was incubated in the presence of 50 U caspase-3 enzyme at 37° C., which results in the cleavage of the DEVD sequence and removing the quenching effect of Dylight 766Q on the fluorophore Dylight 755. The increase in fluorescence over time was monitored.

activation of the NIR-based fluorophore by effector versus initiator caspases: selective activation
Substance: reporter element: caspase-3 cleavable sequence GKDEVDAPC-CONH2 to which a NIR FRET-pair (Dylight 755 / Dylight 766Q) is conjugated (GKDEVDAPC-NH2; also: Dylight 755 / Dylight 766Q FRET pair conjugated)
